Assay results as given in paper PMC2765805 (Journal of medicinal chemistry, 2009).
Read-outs that look alike come from different tables or passages of the source.

Tests used:
[1] = target: T1, human A3 adenosine receptor (Homo sapiens, UniProt P0DMS8); experiment: biochemical; parameters: species or system CHO; settings: read-out: % inhibition
T1 sequence (P0DMS8 1-318): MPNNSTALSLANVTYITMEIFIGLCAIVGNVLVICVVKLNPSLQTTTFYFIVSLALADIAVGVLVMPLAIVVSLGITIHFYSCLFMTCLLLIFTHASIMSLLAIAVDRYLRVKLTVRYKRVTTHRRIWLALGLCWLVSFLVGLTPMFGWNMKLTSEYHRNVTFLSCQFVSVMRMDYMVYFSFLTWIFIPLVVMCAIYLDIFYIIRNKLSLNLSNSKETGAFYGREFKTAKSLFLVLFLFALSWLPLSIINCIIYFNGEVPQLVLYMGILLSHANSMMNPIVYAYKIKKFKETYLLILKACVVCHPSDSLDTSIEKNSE

[2] = target: T1, human A3 adenosine receptor; experiment: biochemical; parameters: species or system CHO; settings: read-out: % inhibition; remark: listed apart in the source

- inhibition at 10 µM [1]: 40.5 ± 13.4%
- inhibition at 10 µM [2]: 40.5 ± 13.4%
SMILES: Clc1ccc(Nc2nc3ccccc3c3[nH]c(C4CCCCC4)nc23)cc1Cl [compound 3]
